Experimental data from patent US9023789B2, “Amylin analogs and pharmaceutical compositions thereof” (Novo Nordisk A/S, priority 2012, dated 2015).
Converted amounts (≈) assume the structure as drawn. Read-outs that look alike come from different tables or passages of the source. Numbered stars: 1 amine (or outer) side, 2 acyl side, 3 side chain; on linkers, the order of the positions; unused ones are H or OH. Bridge positions count the residues as written; N and C are the ends. Side chains are listed from the residue outwards. Peptide text beside a SMILES is read from it. * marks the point of attachment. C20 diacid = O=C(O)CCCCCCCCCCCCCCCCCCC(=O)*; γGlu = O=C(O)[C@H](CCC(=O)[*:2])N[*:1]

Experiments:
[1] = test system: Sprague Dawley (SD) rats; assay: ASSAY (I) efficacy testing on appetite (food intake) using an ad libitum fed rat model; format: in vivo; details: rat
Procedure, shortened: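 Ad libitum fed SD rats (200–250 g) were housed singly on a reversed light/dark cycle and given one 0.01–3 mg/kg dose ip, po or sc just before lights-off, with 5–8 per dose group plus vehicle controls. Food intake was recorded hourly for 7 h, then at 24 h and sometimes 48 h; Grubbs outliers were excluded.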

[2] = molecular target: T1, rat calcitonin receptor (Rattus norvegicus, UniProt P32214); assay: ASSAY (VIII) binding to the rat calcitonin receptor; details: Table 7, read-out: rCTR bind IC50
T1 construct: expressed in transfected cells; host or cells: BHK tk'ts 13 (transient, FuGENE 6), membranes
T1 sequence (P32214 25-479 isoform P32214-2 limits assumed): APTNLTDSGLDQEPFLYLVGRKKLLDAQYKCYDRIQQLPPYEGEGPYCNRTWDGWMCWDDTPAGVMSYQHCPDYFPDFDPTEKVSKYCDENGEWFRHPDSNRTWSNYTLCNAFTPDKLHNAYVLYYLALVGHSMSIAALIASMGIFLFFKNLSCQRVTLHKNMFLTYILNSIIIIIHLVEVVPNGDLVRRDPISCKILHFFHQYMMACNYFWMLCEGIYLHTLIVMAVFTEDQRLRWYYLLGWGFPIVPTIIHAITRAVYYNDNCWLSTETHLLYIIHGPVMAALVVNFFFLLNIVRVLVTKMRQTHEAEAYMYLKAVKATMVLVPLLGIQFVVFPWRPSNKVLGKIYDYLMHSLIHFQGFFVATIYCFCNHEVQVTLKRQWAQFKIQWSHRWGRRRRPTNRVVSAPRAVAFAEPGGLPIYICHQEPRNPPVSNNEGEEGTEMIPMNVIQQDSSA
Procedure, shortened: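 Transfect BHK tk′ts 13 cells transiently with rat calcitonin receptor, culture in DMEM containing 10% FBS, collect cells about 48 hours later, then prepare membranes.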

[3] = ASSAY (IV) determination of solubility; format: physicochemical
Procedure, shortened: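 Polypeptide stock in water ([…]) was mixed 1:1 with 100 mM buffers: glycylglycine at pH 3.0, 4.0, 5.0 and bistrispropane at pH 6.0, 6.5, 7.0, 7.5, 8.0. After 18 hours at room temperature, samples were centrifuged and polypeptide concentration measured by UPLC.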

[4] = bistrispropane buffer, pH 6.5, read-out: Solubility pH 6.5 Concentration
[5] = bistrispropane buffer, pH 7.5, read-out: Solubility pH 7.5 Concentration
[6] = bistrispropane buffer, pH 6.0, read-out: Solubility pH 6.0 Concentration
[7] = bistrispropane buffer, pH 7.0, read-out: Solubility pH 7.0 Concentration
[8] = bistrispropane buffer, pH 8.0, read-out: Solubility pH 8.0 Concentration
[9] = glycylglycine buffer, pH 3.0, read-out: Solubility pH 3.0 Concentration
[10] = glycylglycine buffer, pH 4.0, read-out: Solubility pH 4.0 Concentration
[11] = glycylglycine buffer, pH 5.0, read-out: Solubility pH 5.0 Concentration

Row | Compound | Food intake reduction 0-24 h 3 nmol/kg (%) ([1]; 3 nmol/kg, 0-24 h) | Food intake reduction 24-48 h 3 nmol/kg (%) ([1]; 3 nmol/kg, 24-48 h) | Food intake reduction 0-24 h 30 nmol/kg (%) ([1]; 0-24 h) | Food intake reduction 24-48 h 30 nmol/kg (%) ([1]; 24-48 h) | IC50 [2] | solubility at 18 h [3, 4] | solubility at 18 h [3, 5] | solubility at 18 h [3, 6] | solubility at 18 h [3, 7] | solubility at 18 h [3, 8] | solubility at 18 h [3, 9] | solubility at 18 h [3, 10] | solubility at 18 h [3, 11]
1 | CC[C@H](C)[C@H](NC(=O)[C@H](C)NC(=O)CNC(=O)[C@H](Cc1ccccc1)NC(=O)[C@H](CC(N)=O)NC(=O)[C@@H]1CCCN1C(=O)[C@H](CO)NC(=O)[C@H](CO)NC(=O)[C@H](Cc1c[nH]cn1)NC(=O)[C@H](CCCNC(=N)N)NC(=O)[C@H](CC(C)C)NC(=O)[C@H](Cc1ccccc1)NC(=O)[C@H](CCC(=O)O)NC(=O)[C@H](C)NC(=O)[C@H](CC(C)C)NC(=O)[C@H](CCCNC(=N)N)NC(=O)[C@H](CCC(N)=O)NC(=O)[C@@H](NC(=O)[C@H](C)NC(=O)[C@@H]1CSSC[C@H](NC(=O)[C@@H](N)CCCCNC(=O)CC[C@H](NC(=O)CCCCCCCCCCCCCCCCCCC(=O)O)C(=O)O)C(=O)N[C@@H](CC(N)=O)C(=O)N[C@@H]([C@@H](C)O)C(=O)N[C@@H](C)C(=O)N[C@@H]([C@@H](C)O)C(=O)N1)[C@@H](C)O)C(=O)N1CCC[C@H]1C(=O)N[C@@H](CO)C(=O)N[C@@H](CO)C(=O)N[C@H](C(=O)N[C@@H](CC(N)=O)C(=O)N[C@H](C(=O)NCC(=O)N1CCC[C@H]1C(=O)N[C@@H](CCC(=O)O)C(=O)N[C@H](C(=O)N[C@@H](Cc1ccc(O)cc1)C(N)=O)[C@@H](C)O)C(C)C)[C@@H](C)O [Example 109] (H-K([γGlu-C20 diacid])CNTATCATQRLAEFLRHSSPNFGAIPSSTNVGPETY-NH2; disulfide 2-7 (inferred); N-terminus assumed) | 57% | 50% | 89% | 91% | 10.4 nM | ≥ 200 µM | ≥ 200 µM | ≥ 200 µM | ≥ 200 µM | ≥ 200 µM | ≥ 200 µM | ≥ 200 µM | ≥ 200 µM
2 | CC[C@H](C)[C@H](NC(=O)[C@H](C)NC(=O)CNC(=O)[C@H](Cc1ccccc1)NC(=O)[C@H](CC(N)=O)NC(=O)[C@@H]1CCCN1C(=O)[C@H](CO)NC(=O)[C@H](CO)NC(=O)[C@H](Cc1c[nH]cn1)NC(=O)[C@H](CCCNC(=N)N)NC(=O)[C@H](CC(C)C)NC(=O)[C@H](Cc1ccccc1)NC(=O)[C@H](CCC(=O)O)NC(=O)[C@H](C)NC(=O)[C@H](CC(C)C)NC(=O)[C@H](CCCNC(=N)N)NC(=O)[C@H](CCC(N)=O)NC(=O)[C@@H](NC(=O)[C@H](C)NC(=O)[C@@H]1CSSC[C@H](NC(=O)[C@@H](N)CCCCNC(=O)CC[C@H](NC(=O)CC[C@H](NC(=O)CCCCCCCCCCCCCCCCCCC(=O)O)C(=O)O)C(=O)O)C(=O)N[C@@H](CC(N)=O)C(=O)N[C@@H]([C@@H](C)O)C(=O)N[C@@H](C)C(=O)N[C@@H]([C@@H](C)O)C(=O)N1)[C@@H](C)O)C(=O)N1CCC[C@H]1C(=O)N[C@@H](CO)C(=O)N[C@@H](CO)C(=O)N[C@H](C(=O)N[C@@H](CC(N)=O)C(=O)N[C@H](C(=O)NCC(=O)N1CCC[C@H]1C(=O)N[C@@H](CCCNC(=N)N)C(=O)N[C@H](C(=O)N[C@@H](Cc1ccc(O)cc1)C(N)=O)[C@@H](C)O)C(C)C)[C@@H](C)O [Example 110] (H-K([γGlu-γGlu-C20 diacid])CNTATCATQRLAEFLRHSSPNFGAIPSSTNVGPRTY-NH2; disulfide 2-7) |  |  | 68% | 31% | 38.3 nM | ≥ 200 µM | 184 µM (≈ 842 µg/mL) | ≥ 200 µM | ≥ 200 µM | 166 µM (≈ 760 µg/mL) | ≥ 200 µM | ≥ 200 µM | ≥ 200 µM
3 | CC[C@H](C)[C@H](NC(=O)[C@H](C)NC(=O)CNC(=O)[C@H](Cc1ccccc1)NC(=O)[C@H](CC(N)=O)NC(=O)[C@@H]1CCCN1C(=O)[C@H](CO)NC(=O)[C@H](CO)NC(=O)[C@H](Cc1c[nH]cn1)NC(=O)[C@H](CCCNC(=N)N)NC(=O)[C@H](CC(C)C)NC(=O)[C@H](Cc1ccccc1)NC(=O)[C@H](CC(N)=O)NC(=O)[C@H](C)NC(=O)[C@H](CC(C)C)NC(=O)[C@H](CCCNC(=N)N)NC(=O)[C@H](CCC(N)=O)NC(=O)[C@@H](NC(=O)[C@H](C)NC(=O)[C@@H]1CSSC[C@H](NC(=O)[C@@H](N)CCCCNC(=O)CC[C@H](NC(=O)CCCCCCCCCCCCCCC(=O)O)C(=O)O)C(=O)N[C@@H](CC(N)=O)C(=O)N[C@@H]([C@@H](C)O)C(=O)N[C@@H](C)C(=O)N[C@@H]([C@@H](C)O)C(=O)N1)[C@@H](C)O)C(=O)N1CCC[C@H]1C(=O)N[C@@H](CO)C(=O)N[C@@H](CO)C(=O)N[C@H](C(=O)N[C@@H](CC(N)=O)C(=O)N[C@H](C(=O)NCC(=O)N[C@@H](Cc1c[nH]cn1)C(=O)N[C@@H](CC(N)=O)C(=O)N[C@H](C(=O)N[C@@H](Cc1ccc(O)cc1)C(N)=O)[C@@H](C)O)C(C)C)[C@@H](C)O [Example 111] |  |  | 17% | 0% | 404 nM | ≥ 200 µM | ≥ 200 µM | ≥ 200 µM | ≥ 200 µM | 165 µM (≈ 722 µg/mL) | ≥ 200 µM | ≥ 200 µM | ≥ 200 µM
4 | CC[C@H](C)[C@H](NC(=O)[C@H](C)NC(=O)CNC(=O)[C@H](Cc1ccccc1)NC(=O)[C@H](CC(N)=O)NC(=O)[C@@H]1CCCN1C(=O)[C@H](CO)NC(=O)[C@H](CO)NC(=O)[C@H](Cc1c[nH]cn1)NC(=O)[C@H](CCCNC(=N)N)NC(=O)[C@H](CC(C)C)NC(=O)[C@H](Cc1ccccc1)NC(=O)[C@H](CC(N)=O)NC(=O)[C@H](C)NC(=O)[C@H](CC(C)C)NC(=O)[C@H](CCCNC(=N)N)NC(=O)[C@H](CCC(N)=O)NC(=O)[C@@H](NC(=O)[C@H](C)NC(=O)[C@@H]1CSSC[C@H](NC(=O)[C@@H](N)CCCCNC(=O)CC[C@H](NC(=O)CCCCCCCCCCCCCCCCC(=O)O)C(=O)O)C(=O)N[C@@H](CC(N)=O)C(=O)N[C@@H]([C@@H](C)O)C(=O)N[C@@H](C)C(=O)N[C@@H]([C@@H](C)O)C(=O)N1)[C@@H](C)O)C(=O)N1CCC[C@H]1C(=O)N[C@@H](CO)C(=O)N[C@@H](CO)C(=O)N[C@H](C(=O)N[C@@H](CC(N)=O)C(=O)N[C@H](C(=O)NCC(=O)N[C@@H](Cc1c[nH]cn1)C(=O)N[C@@H](CC(N)=O)C(=O)N[C@H](C(=O)N[C@@H](Cc1ccc(O)cc1)C(N)=O)[C@@H](C)O)C(C)C)[C@@H](C)O [Example 113] |  |  | 48% | 2% | 47 nM | ≥ 200 µM | 154 µM (≈ 678 µg/mL) | ≥ 200 µM |  | 96 µM (≈ 423 µg/mL) | ≥ 200 µM | ≥ 200 µM | ≥ 200 µM
5 | CC[C@H](C)[C@H](NC(=O)[C@H](C)NC(=O)CNC(=O)[C@H](Cc1ccccc1)NC(=O)[C@H](CC(N)=O)NC(=O)[C@@H]1CCCN1C(=O)[C@H](CO)NC(=O)[C@H](CO)NC(=O)[C@H](Cc1c[nH]cn1)NC(=O)[C@H](CCCNC(=N)N)NC(=O)[C@H](CC(C)C)NC(=O)[C@H](Cc1ccccc1)NC(=O)[C@H](CCC(=O)O)NC(=O)[C@H](C)NC(=O)[C@H](CC(C)C)NC(=O)[C@H](CCCNC(=N)N)NC(=O)[C@H](CCC(N)=O)NC(=O)[C@@H](NC(=O)[C@H](C)NC(=O)[C@@H]1CSSC[C@H](NC(=O)[C@@H](N)CCCCNC(=O)CC[C@H](NC(=O)CCCCCCCCCCCCCCCCCCC(=O)O)C(=O)O)C(=O)N[C@@H](CC(N)=O)C(=O)N[C@@H]([C@@H](C)O)C(=O)N[C@@H](C)C(=O)N[C@@H]([C@@H](C)O)C(=O)N1)[C@@H](C)O)C(=O)N1CCC[C@H]1C(=O)N[C@@H](CO)C(=O)N[C@@H](CO)C(=O)N[C@H](C(=O)N[C@@H](CC(N)=O)C(=O)N[C@H](C(=O)NCC(=O)N1CCC[C@H]1C(=O)N[C@@H](CCCNC(=N)N)C(=O)N[C@H](C(=O)N[C@@H](Cc1ccc(O)cc1)C(N)=O)[C@@H](C)O)C(C)C)[C@@H](C)O [Example 117] (H-K([γGlu-C20 diacid])CNTATCATQRLAEFLRHSSPNFGAIPSSTNVGPRTY-NH2; disulfide 2-7; N-terminus assumed) |  |  | 61% | 4% | 15.4 nM | ≥ 200 µM | ≥ 200 µM | ≥ 200 µM | ≥ 200 µM | 147 µM (≈ 654 µg/mL) | ≥ 200 µM | ≥ 200 µM | ≥ 200 µM
